Data published in US20250368638A1, “BICYCLIC INHIBITORS OF NICOTINAMIDE […], COMPOSITIONS AND USES THEREOF” (President and Fellows of Harvard College, priority 2021, published 2025).

Tests used:
[1] = Permeability assay in Caco-2 cells; conditions: human
Method: Preparation of Caco-2 Cells: 50 μL and 25 mL of cell culture medium were added to each well of the Transwell insert and reservoir, respectively. And then the HTS transwell plates were incubated at 37° C., 5% CO2 for 1 hour before cell seeding. […] Cell culture medium was replaced every other day, beginning no later than 24 hours after initial plating.
Preparation of Stock Solutions: The stock solutions of control and test compounds were prepared in DMSO at the concentration of 10 mM. Digoxin, Prazosin and propranolol were used as control compounds in this assay.
Assay Procedures: The Caco-2 plate was removed from the incubator and washed twice with pre-warmed HBSS (10 mM HEPES, pH 7.4), and then incubated at 37° C. for 30 minutes. The stock solutions of controls and Test compounds were diluted in DMSO to get 1 mM solutions and then diluted with HBSS (10 mM HEPES, pH 7.4) to get 5 μM working solutions. The final concentration of DMSO in the incubation system was 0.5%. To determine the rate of drug transport in the apical to basolateral direction. Add 125 μL of the test compounds to the Transwell insert (apical compartment), and transfer 50 μL sample (DO sample) immediately from the apical compartment to a new 96-well plate. Fill the wells in the receiver plate (basolateral compartment) with 235 μL of HBSS (10 mM HEPES, pH 7.4). To determine the rate of drug transport in the basolateral to apical direction. Add 285 μL of the test compounds to the receiver plate wells (basolateral compartment), and transfer 50 μL sample (DO sample) immediately from the basolateral compartment to a new 96-well plate. Fill the Transwell insert (apical compartment) with 75 μL of HBSS (10 mM HEPES, pH 7.4). Time 0 samples were prepared by transferring 50 μL of 5 μM working solution to wells of the 96-deepwell plate, followed by the addition of 200 μL cold acetonitrile containing appropriate internal standards (100 nM alprazolam, 200 nM labetalol, 200 nM caffeine and 200 nM diclofenac). The plates were incubated at 37° C. for 2 hours. […] Samples were vortexed for 5 minutes and then centrifuged at 3,220 g for 40 minutes. An aliquot of 100 μL of the supernatant was mixed with 100 μL of ultra-pure water to use for LC-MS/MS analysis. To determine the Lucifer Yellow leakage after 2 hour transport period, stock solution of Lucifer yellow was prepared in water and diluted with HBSS (10 mM HEPES, pH 7.4) to reach the final concentration of 100 μM. 100 μL of the Lucifer yellow solution was added to each Transwell insert (apical compartment), followed by filling the wells in the receiver plate (basolateral compartment) with 300 μL of HBSS (10 mM HEPES, pH 7.4). The plates were incubated at 37° C. for 30 minutes. 80 μL samples were removed directly from the apical and basolateral wells (using the basolateral access holes) and transferred to wells of new 96 wells plates.

[2] = test system: Salmonella typhimurium (TA98, TA1535, TA1537) and Escherichia coli WP2uvrA (pKM101); assay: Mini-Ames test; format: cell-based
Method: 1. The study evaluated the mutagenic potential of the test article, (or its metabolites) by measuring its ability to induce reverse mutations at selected loci of bacteria Salmonella typhimurium (TA98, TA1535, TA1537) and Escherichia coli WP2uvrA (pKM101) in both the presence and absence of microsomal enzymes.
2. […] Top agar containing 0.6% (w/v) agar and 0.5% (w/v) sodium chloride were supplemented with 0.5 mM D-biotin and 0.5 mM L-histidine for Salmonella typhimurium strains used or 0.5 mM D-biotin and 0.5 mM L-tryptophan for Escherichia coli WP2uvrA (pKM101) used.
3. In the Mini-Ames test, 4 strains were selected for testing: Salmonella typhimurium (TA98, TA1535.TA1537) and Escherichia coli WP2uvrA (pKM101). The test strains were prepared from frozen working stocks. 10 μL frozen working stock adding in 5 mL nutrient broth were incubated with 220 rpm shaking at 37±2° C. for 10 hours until an optical density (at 650 nm) of 0.6-0.8 were reached. The overnight culture were used for the mutagenicity test.
4. The test article was supplied as the powder and maintained at −20° C. until use. Stock solutions were prepared at 50 mg/mL in DMSO (Table 11A). […]
7. […] If the precipitation dose interfere with the scoring (count the number of the revertants), the lowest precipitating dose should be used as the top dose scored. […]
Background lawns are measured microscopically using a stereoscope. […]

C[C@@H]1Cc2cc(C(N)=O)cnc2N1 [Compound 11, (2R)-2-methyl-2,3-dihydro-1H-pyrrolo[2,3-b]pyridine-5-carboxamide]
Papp A→B at 2 h, 5 μM ([1]; Caco-2, pH 7.4): 27.5 ×10⁻⁶ cm/s
Papp B→A at 2 h, 5 μM ([1]; Caco-2, pH 7.4): 21.8 ×10⁻⁶ cm/s
efflux ratio at 2 h, 5 μM ([1]; Caco-2, pH 7.4): 0.79
recovery at 2 h, 5 µM ([1]; Caco-2, pH 7.4, Recovery (%) AP-BL): 102%
recovery at 2 h, 5 µM ([1]; Caco-2, pH 7.4, Recovery (%) BL-AP): 106%
F value (Mini Ames) ([2]; all tested concentrations, every strain, with and without an S9 Fraction): less than 2
Mutagenicity (Mini-Ames) ([2]; various bacteria strains, with and without S9): not mutagenic
